Reference: patent US12252493B2, “Imidazo[1,2-c]pyrimidine derivatives as PRC2 inhibitors for treating cancer” (Mirati Therapeutics, Inc., priority 2019, dated 2025)
pIC50: −log10 of the molar value.

Legend:
[1] = system: Karpas 422 cells expressing mutant EZH2 (Y641N); experiment: Karpas 422 cell viability (Cell Titre Glo) assay; type: cell-based, human; settings: Homo sapiens, CTG viability, time point (Day 4, Day 7 or Day 11) not given, read-out: IC50, Inhibiting Proliferation of Cells Expressing an Activating Mutant Form of EZH2
Protocol: Karpas 422 cell line is a human B cell non-Hodgkin's lymphoma cell line established from a patient having DLBCL. This EZH2 heterozygotic cell line expresses a mutant form of EZH2 enzyme (Y641N) that increases histone H3 methylation and this mutation has been implicated in the tumorgenesis of lymphomas, such as DLBCL.
Karpas 422 cells (PHE cat no., 06101702) were cultured in RPMI medium supplemented with 20% fetal bovine serum and 1% penicillin/1% streptomycin and plated at a density of 1000 cells/90 μl/well in 96 well white assay plates. A dose response curve for compounds of the present invention was determined by adding a 10 μl aliquot of stock solutions of varying concentrations of compounds to the same medium in each well, over a concentration range of 10 μM using 3-fold dilutions to a final concentration of 1.5 nM. The plates were incubated at 37° C. for predetermined time periods, Day 4, Day 7, or Day 11, and the viability of the cells was measured using a CTG assay kit (Cell Titre Glo; Promega cat. no G7573) on Day 4 and Day 7 in accordance with the manufacturer's instructions.
For the viability assay for the Day 11 plates, the plates were subjected to centrifugation at 1100 rpm for five minutes on Day 7 and the supernatant was removed by aspiration. The cells were resuspended in 90 μl aliquot of the appropriate growth medium lacking the compound followed by addition of 10 μl of a 10× stock of the same compound at the same concentration. The viability of the Day 11 cells was measured using the CTG assay kit described above in accordance with the manufacturer's instructions. The IC50 values for each compound at each predetermined time point were calculated using Graph pad PRISM software and the results are shown in Table 7. Key: A=≤250 nM; B=>250 nM-≤500 nM; C=>500 nM-≤5 μM and N.D.=not determined.

[2] = target: purified human, His-tagged PRC2 complex (Homo sapiens (Human), UniProt O75530); experiment: Hot Spot HMT assay of PRC2 enzymatic activity (tritiated methyl transfer from SAM to core histone); type: biochemical; settings: 10 nM purified PRC2 complex, 0.05 mg/ml core histone H3, 1 uM 3H-SAM, 1 hr at 30° C.; read-out: IC50, Inhibition of PRC2-mediated Enzymatic Activity
Protocol: Ten-point dose-response curves for compounds of the present invention were determined using a Hot Spot HMT assay (Reaction Biology Corp; see Horiuchi et al., Assay Drug Dev Technol. (2013) 4: 227-236 doi: 10.1089/adt.2012.480). The assay uses purified human, His-tagged PRC2 complex, including N-terminal His-tagged EZH2 enzyme, N-terminal Flag-tagged embryonic ectoderm development protein (EED), N-terminal His-tagged suppressor of zeste 12 (SUZ12), N-terminal His-tagged AEBP2, and N-terminal His-tagged RbAp48. In this assay, the transfer of the tritiated methyl group from radiolabeled S-adenosyl methionine (SAM) to purified core histone protein by EZH2 is quantitated after filtration to determine the activity of the core PRC2 complex in the presence and absence of compound.
Briefly, compounds of the present invention were solubilized in DMSO and a series of 10, three-fold serial dilutions were made for each compound in 15% DMSO. The initial starting concentration for the serial dilutions of each compound was 1.0 μM. Control samples lacking compound, EZH2 enzyme or various reaction components also were prepared and processed in parallel with compound test samples. SAH (S-(5-adenosyl)-L-homocysteine) was used as a positive control for assay validation.
An aliquot of each serial dilution of test compound was added to deep 384 well plate using Acoustic Technology instrument (Echo 550, LabCyte) containing reaction buffer (50 mM Tris-HCl (pH 8.)), 0.01% Brij35, 1 mM EDTA, 1 mM DTT, 1 mM PMSF and 1% DMSO), 10 nM purified PRC2 complex and 0.05 mg/ml core histone H3 in a 5 μl volume. The reaction was mixed gently and then pre-incubated for 20 min at 30° C. The enzymatic reaction was initiated by adding 1 uM S-Adenosyl-L-[methyl ^3H]methionine and incubated for 1 hr at 30° C. After 1 hr, the reaction product was detected using a filter binding method and the amount of tritiated H3 core histone was quantitated using a scintillation counter. The IC50 value for each compound was determined from each 10-point dose-response curve using GraphPad Prism software and the results for exemplary compounds of Formula (I) are shown in Table 5. Key: A=≤250 nM; B=>250 nM—≤500 nM; and C=>500 nM—≤2 μM.

[3] = system: PRC2-mediated histone H3 methylation (H3 Lys27 trimethylation) in Pfeiffer cells expressing mutant EZH2 (A677G); experiment: Tri-Methyl Histone H3 (Lys 27) sandwich ELISA in Pfeiffer cells; type: cell-based, human; settings: Homo sapiens; Pfeiffer cells, 96 hours incubation, ELISA; read-out: IC50, Inhibition of EZH2-mediated Histone H3 Trimethylation
Text: The Pfeiffer cell line was established from a […] from a patient having metastatic diffuse large B-cell lymphoma (DLBCL). This cell line expresses a mutant form of the EZH2 enzyme (A677G) that results in enhanced EZH2 activity leading to increased methylation of histone H3 Lys27. Increased trimethylation of histone H3 Lys27 is believed to be implicated in tumorgenesis and poor clinical prognosis in lymphomas (McCabe et al., (2012) Nature 492:108-112).
Inhibition of PRC2-mediated histone H3 methylation by compounds of Formula (I) was measured by ELISA using a Tri-Methyl Histone H3 (Lys 27) Sandwich ELISA Kit (Cell Signaling Tech #7866C) in accordance with the manufacturer's instructions. Briefly, Pfeiffer cells were cultured in RPMI medium supplemented with 10% fetal bovine serum and 1% penicillin and 1% streptomycin in 96 well culture plates at 37° C. to a density of 8000 cells/90 μl/well and the cells were harvested. A series of 3-fold serial dilutions of each test compound of Formula (I) were prepared in RPMI medium and added to the cells at final concentrations ranging from 1 μM to 0.15 nM. The plates were incubated at 37° C. for 96 hours.
After incubation, the cells were pelleted by centrifugation in a pre-cooled 4° C. rotor at 1,100 rpm for 10 min and the supernatant was removed by aspiration. The cell pellet was resuspended in 55 μl of Lysis Buffer (0.4M HCl) and incubated on ice with periodic shaking for 30 minutes. The lysed cells were subjected to centrifugation at 4,200 rpm for 10 min at 4° C. and the supernatant containing acid-soluble proteins was collected and the remainder discarded. The acid-soluble proteins were brought to a neutral pH by the addition of 20 μl of Neutralization Buffer (1 M Sodium phosphate, dibasic (pH 12.5), 2.5 mM DTT and 1 mM PMSF) and the neutralized lysates were analyzed by ELISA.
A 65 μl aliquot of each cell lysate was added to a well of a microwell strip, the microwells were sealed using tape and incubated either at 37° C. for two hours or at 4° C. overnight. After incubation, the tape was removed at the microwells were washed four times using 200 μl of 1× Wash Buffer. To each washed microwell, a 100 μl aliquot of an anti-trimethyl histone H3 Lys27 Detection Antibody solution was added and the microwells were incubated at 37° C. for one hour. The Detection Antibody solution was removed by aspiration and the wells were washed four times each using 200 μl of 1× Wash Buffer.
A 100 μl aliquot of an HRP-linked secondary antibody was added to each well, the wells were sealed with tape and incubated at 37° C. for 30 min. The HRP-linked secondary antibody solution was removed by aspiration and the wells were washed four times using 200 μl of 1× Wash Buffer. A 100 μl aliquot of a TMB substrate was added to each well, the wells were sealed with tape and incubated at 37° C. for 10 min or 25° C. for 30 min. The reaction was stopped by the addition of 100 μl aliquot of a STOP solution and the plate was shaken briefly. The degree of histone H3 trimethylation was determined using a spectrophotometric readout by measuring the absorbance at 450 nm and then calculating the amount of trimethylated histone H3. Key: A=≤250 nM; B=>250 nM-≤500 nM; and C=>500 nM-≤5 μM.

Sequence of purified human, His-tagged PRC2 complex (Q15910 whole entry): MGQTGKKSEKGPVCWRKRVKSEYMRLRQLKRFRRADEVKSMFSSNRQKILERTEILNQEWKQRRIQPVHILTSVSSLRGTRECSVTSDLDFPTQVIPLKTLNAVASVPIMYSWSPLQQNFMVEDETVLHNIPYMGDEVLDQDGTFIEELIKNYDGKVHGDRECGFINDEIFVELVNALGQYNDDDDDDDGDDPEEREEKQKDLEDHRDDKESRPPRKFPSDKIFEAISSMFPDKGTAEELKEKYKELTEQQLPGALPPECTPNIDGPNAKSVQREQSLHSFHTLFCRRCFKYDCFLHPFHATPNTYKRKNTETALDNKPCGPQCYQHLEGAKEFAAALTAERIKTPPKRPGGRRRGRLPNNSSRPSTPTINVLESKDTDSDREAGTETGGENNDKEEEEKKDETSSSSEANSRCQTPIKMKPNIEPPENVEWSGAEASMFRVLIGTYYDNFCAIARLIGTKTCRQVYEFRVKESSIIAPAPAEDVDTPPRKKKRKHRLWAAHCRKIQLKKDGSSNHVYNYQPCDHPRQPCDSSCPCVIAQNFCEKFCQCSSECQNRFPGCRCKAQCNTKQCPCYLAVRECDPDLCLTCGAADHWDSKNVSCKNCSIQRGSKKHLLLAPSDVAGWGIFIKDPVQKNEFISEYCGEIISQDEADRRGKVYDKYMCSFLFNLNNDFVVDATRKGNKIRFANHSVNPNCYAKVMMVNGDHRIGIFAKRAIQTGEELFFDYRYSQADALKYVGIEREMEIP
Sequence of purified human, His-tagged PRC2 complex (O75530 whole entry): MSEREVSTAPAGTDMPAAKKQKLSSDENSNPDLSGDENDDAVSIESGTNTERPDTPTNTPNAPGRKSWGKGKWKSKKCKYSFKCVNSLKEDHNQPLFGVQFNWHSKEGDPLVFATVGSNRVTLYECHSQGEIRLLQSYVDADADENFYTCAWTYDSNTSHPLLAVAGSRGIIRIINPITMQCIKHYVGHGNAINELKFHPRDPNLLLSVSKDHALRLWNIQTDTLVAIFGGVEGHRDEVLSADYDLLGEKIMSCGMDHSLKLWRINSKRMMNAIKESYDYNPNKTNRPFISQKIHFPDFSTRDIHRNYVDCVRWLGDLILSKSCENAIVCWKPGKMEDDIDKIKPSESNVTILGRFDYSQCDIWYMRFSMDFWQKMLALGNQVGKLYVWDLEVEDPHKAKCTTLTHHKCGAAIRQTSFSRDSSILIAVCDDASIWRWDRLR
Sequence of purified human, His-tagged PRC2 complex (Q15022 whole entry partner): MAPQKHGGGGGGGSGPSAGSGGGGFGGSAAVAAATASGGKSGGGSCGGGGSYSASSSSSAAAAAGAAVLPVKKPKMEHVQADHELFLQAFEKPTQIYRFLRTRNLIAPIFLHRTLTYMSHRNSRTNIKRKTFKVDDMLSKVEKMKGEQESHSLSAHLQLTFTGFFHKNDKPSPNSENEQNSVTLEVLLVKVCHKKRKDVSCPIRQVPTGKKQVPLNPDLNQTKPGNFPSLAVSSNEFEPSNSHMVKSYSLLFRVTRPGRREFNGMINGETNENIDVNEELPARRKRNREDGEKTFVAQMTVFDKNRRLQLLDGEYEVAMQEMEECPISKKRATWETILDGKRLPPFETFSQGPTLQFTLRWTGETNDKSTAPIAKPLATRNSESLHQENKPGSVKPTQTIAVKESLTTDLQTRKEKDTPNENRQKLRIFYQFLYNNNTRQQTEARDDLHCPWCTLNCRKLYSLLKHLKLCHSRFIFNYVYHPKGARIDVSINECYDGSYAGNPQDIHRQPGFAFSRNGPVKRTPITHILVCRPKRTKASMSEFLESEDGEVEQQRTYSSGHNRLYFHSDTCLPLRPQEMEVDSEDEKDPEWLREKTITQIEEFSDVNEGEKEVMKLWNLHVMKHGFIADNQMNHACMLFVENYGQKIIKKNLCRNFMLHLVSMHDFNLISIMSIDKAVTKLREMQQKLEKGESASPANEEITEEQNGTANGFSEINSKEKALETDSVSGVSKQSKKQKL
Sequence of purified human, His-tagged PRC2 complex (Q6ZN18 whole entry partner): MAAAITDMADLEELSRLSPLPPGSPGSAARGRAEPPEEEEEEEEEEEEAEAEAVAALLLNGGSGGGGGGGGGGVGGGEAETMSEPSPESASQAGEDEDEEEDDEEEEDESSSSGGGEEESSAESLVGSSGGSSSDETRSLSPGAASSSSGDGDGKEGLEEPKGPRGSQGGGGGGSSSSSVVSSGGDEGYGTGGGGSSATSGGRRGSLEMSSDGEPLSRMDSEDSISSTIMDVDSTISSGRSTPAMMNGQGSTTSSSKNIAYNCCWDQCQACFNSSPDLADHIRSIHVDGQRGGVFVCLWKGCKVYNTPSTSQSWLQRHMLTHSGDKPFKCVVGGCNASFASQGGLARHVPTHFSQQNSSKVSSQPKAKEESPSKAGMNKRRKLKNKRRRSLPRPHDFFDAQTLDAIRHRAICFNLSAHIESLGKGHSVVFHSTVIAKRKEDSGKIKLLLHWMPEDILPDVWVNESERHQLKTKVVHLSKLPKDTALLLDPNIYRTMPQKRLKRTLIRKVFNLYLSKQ
Sequence of purified human, His-tagged PRC2 complex (Q09028 whole entry partner): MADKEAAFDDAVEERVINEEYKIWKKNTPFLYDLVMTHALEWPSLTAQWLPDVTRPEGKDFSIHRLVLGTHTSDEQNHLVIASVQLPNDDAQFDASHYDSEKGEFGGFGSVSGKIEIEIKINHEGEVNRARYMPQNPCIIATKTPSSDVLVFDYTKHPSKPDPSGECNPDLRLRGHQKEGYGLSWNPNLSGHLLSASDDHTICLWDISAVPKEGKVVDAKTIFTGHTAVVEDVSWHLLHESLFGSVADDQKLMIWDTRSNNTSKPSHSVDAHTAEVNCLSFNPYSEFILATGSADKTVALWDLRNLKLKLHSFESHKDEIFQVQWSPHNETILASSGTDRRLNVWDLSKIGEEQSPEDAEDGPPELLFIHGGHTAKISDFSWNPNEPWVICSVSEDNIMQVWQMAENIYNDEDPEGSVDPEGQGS

Row | Structure (SMILES) | pIC50 [1] | pIC50 [2] | pIC50 [3]
1 | Cc1cc(-c2cnc(NCc3c(F)ccc4c3CCO4)n3cc(CNCc4ccccc4)nc23)n(C)n1 [Example 32, 2-((benzylamino)methyl)-8-(1,3-dimethyl-1H-pyrazol-5-yl)-N-((5-fluoro-2,3-dihydrobenzofuran-4-yl)methyl)imidazo[1,2-c]pyrimidin-5-amine] | > 6.60 | 5.70 to 6.30 | 6.30 to 6.60
2 | Cc1cc(-c2cnc(NCc3c(F)ccc4c3CCO4)n3cc(CO)nc23)n(C)n1 [Example 1, (8-(1,3-dimethyl-1H-pyrazol-5-yl)-5-(((5-fluoro-2,3-dihydrobenzofuran-4-yl)methyl)amino)imidazo[1,2-c]pyrimidin-2-yl)methanol] | > 6.60 | > 6.60 | 
3 | Cc1cc(-c2cnc(NCc3c(F)ccc4occc34)n3cc(CN)nc23)n(C)n1 [Example 24] | 6.30 to 6.60 | 5.70 to 6.30 | 6.30 to 6.60
4 | Cc1cc(-c2cnc(NCc3c(F)ccc4c3CCO4)n3cc(-c4nn[nH]n4)nc23)n(C)n1 [Example 43, 8-(1,3-dimethyl-1H-pyrazol-5-yl)-N-((5-fluoro-2,3-dihydrobenzofuran-4-yl)methyl)-2-(2H-tetrazol-5-yl)imidazo[1,2-c]pyrimidin-5-amine] |  | > 6.60 | 
5 | Cc1cc(-c2cnc(NCc3c(F)ccc4c3CCO4)n3cc(C(C)N)nc23)ccn1 (centres unmarked) [Example 38, 2-(1-aminoethyl)-N-((5-fluoro-2,3-dihydrobenzofuran-4-yl)methyl)-8-(2-methylpyridin-4-yl)imidazo[1,2-c]pyrimidin-5-amine] | > 6.60 | > 6.60 | > 6.60
6 | Cc1cc(-c2cnc(NCc3c(F)ccc4c3CCO4)n3cc(C(N)C(F)(F)F)nc23)n(C)n1 (centres unmarked) [Example 42, 2-(1-amino-2,2,2-trifluoroethyl)-8-(1,3-dimethyl-1H-pyrazol-5-yl)-N-((5-fluoro-2,3-dihydrobenzofuran-4-yl)methyl)imidazo[1,2-c]pyrimidin-5-amine] |  | 6.30 to 6.60 | 
7 | Cc1cc(-c2cnc(NCc3c(F)ccc4c3CCO4)n3cc(CN(C)C)nc23)n(C)n1 [Example 26, 8-(1,3-dimethyl-1H-pyrazol-5-yl)-2-((dimethylamino)methyl)-N-((5-fluoro-2,3-dihydrobenzofuran-4-yl)methyl)imidazo[1,2-c]pyrimidin-5-amine] |  | 5.70 to 6.30 | 
8 | Cc1cc(S(C)(=O)=O)ccc1-c1cnc(NCc2c(F)ccc3c2CCO3)n2cc(CO)nc12 [Example 2, (5-(((5-fluoro-2,3-dihydrobenzofuran-4-yl)methyl)amino)-8-(2-methyl-4-(methylsulfonyl)phenyl)imidazo[1,2-c]pyrimidin-2-yl)methanol] | 5.30 to 6.30 | > 6.60 | 
9 | Cn1nccc1-c1cnc(NCc2c(F)ccc3c2CCO3)n2cc(CO)nc12 [Example 6, (5-(((5-fluoro-2,3-dihydrobenzofuran-4-yl)methyl)amino)-8-(1-methyl-1H-pyrazol-5-yl)imidazo[1,2-c]pyrimidin-2-yl)methanol] |  | 6.30 to 6.60 | > 6.60
10 | CNCc1cn2c(NCc3c(F)ccc4c3CCO4)ncc(-c3cc(C)nn3C)c2n1 [Example 25, 8-(1,3-dimethyl-1H-pyrazol-5-yl)-N-((5-fluoro-2,3-dihydrobenzofuran-4-yl)methyl)-2-((methylamino)methyl)imidazo[1,2-c]pyrimidin-5-amine] | 6.30 to 6.60 | 6.30 to 6.60 | 
11 | COc1ccc(-c2cnc(NCc3c(F)ccc4c3CCO4)n3cc(CO)nc23)c(C)n1 [Example 5, (5-(((5-fluoro-2,3-dihydrobenzofuran-4-yl)methyl)amino)-8-(6-methoxy-2-methylpyridin-3-yl)imidazo[1,2-c]pyrimidin-2-yl)methanol] | 6.30 to 6.60 | 5.70 to 6.30 | 
12 | NCc1cn2c(NCc3c(F)ccc4c3CCO4)ncc(-c3cccc(F)c3)c2n1 [Example 14, 2-(aminomethyl)-N-((5-fluoro-2,3-dihydrobenzofuran-4-yl)methyl)-8-(3-fluorophenyl)imidazo[1,2-c]pyrimidin-5-amine] | 5.30 to 6.30 | 6.30 to 6.60 | 
13 | Cc1ncccc1-c1cnc(NCc2c(F)ccc3c2CCO3)n2cc(CO)nc12 [Example 3, (5-(((5-fluoro-2,3-dihydrobenzofuran-4-yl)methyl)amino)-8-(2-methylpyridin-3-yl)imidazo[1,2-c]pyrimidin-2-yl)methanol] | 5.30 to 6.30 | 5.70 to 6.30 | 
14 | OCc1cn2c(NCc3c(F)ccc4c3CCO4)ncc(-c3ccc(C4CC4)nc3)c2n1 [Example 4, (8-(6-cyclopropylpyridin-3-yl)-5-(((5-fluoro-2,3-dihydrobenzofuran-4-yl)methyl)amino)imidazo[1,2-c]pyrimidin-2-yl)methanol] | 5.30 to 6.30 | 5.70 to 6.30 | 
15 | Cc1cc(-c2cnc(NCc3c(F)ccc4c3CCO4)n3cc(C(O)c4ccccc4)nc23)n(C)n1 (centres unmarked) [Example 8] |  | 6.30 to 6.60 | 
